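Interpolation was linear, between the two tested concentrations surrounding the appropriate level; five concentrations were tested over 48 hours in 96-well plates. GI50: concentration for 50% inhibition of growth.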 Active and inactive are the calls of the source. Cut-off read from the data, not from the text of the source: active = GI50 up to about 1.1 µM and inactive = higher.
Legend:
Assay in all cases: inhibition of tumour cell growth, NCI panel, 48 h
K562 = system: K562
SW-620 = system: SW-620
OVCAR-4 = system: OVCAR-4
COLO 205 = system: COLO 205
OVCAR-3 = system: OVCAR-3
LOX IMVI = system: LOX IMVI
SN12C = system: SN12C
UO-31 = system: UO-31
A498 = system: A498
HCT-15 = system: HCT-15
A549 = system: A549
ACHN = system: ACHN
U-251 = system: U-251
MOLT-4 = system: MOLT-4
NCI-H460 = system: NCI-H460
CCRF-CEM = system: CCRF-CEM
NCI-H522 = system: NCI-H522
SF-539 = system: SF-539
TK-10 = system: TK-10
HOP-62 = system: HOP-62

O=C(CCN1CCN2c3ccccc3CCC2C1)c1ccc(F)cc1 (stereo not given)
GI50 (K562): 30.2 µM (inactive)
GI50 (SW-620): 10.3 µM (inactive)
GI50 (OVCAR-4): 20 µM (inactive)
GI50 (COLO 205): 22 µM (inactive)
GI50 (OVCAR-3): 32.1 µM (inactive)
GI50 (LOX IMVI): 30.1 µM (inactive)
GI50 (SN12C): 48.6 µM (inactive)
GI50 (UO-31): 17.6 µM (inactive)
GI50 (A498): > 100 µM (inactive)
GI50 (HCT-15): 20.8 µM
GI50 (A549): > 100 µM (inactive)
GI50 (ACHN): 19 µM (inactive)
GI50 (U-251): 27.8 µM (inactive)
GI50 (MOLT-4): 57.3 µM (inactive)
GI50 (NCI-H460): 47.1 µM (inactive)
GI50 (CCRF-CEM): 36.6 µM (inactive)
GI50 (NCI-H522): 15.4 µM (inactive)
GI50 (SF-539): 20.8 µM (inactive)
GI50 (TK-10): 29.6 µM (inactive)
GI50 (HOP-62): 23.8 µM (inactive)

COc1ccc(/C=C2/SC(c3c(O)ccc4ccccc34)N(NC(=O)CCCCCCCCC(=O)NN3C(=O)/C(=C\c4ccc(OC)c(OC)c4)SC3c3c(O)ccc4ccccc34)C2=O)cc1OC (stereo not given)
GI50 (K562): 1.2 µM (inactive)
GI50 (SW-620): 1.53 µM (inactive)
GI50 (OVCAR-4): 1.64 µM (inactive)
GI50 (COLO 205): 3.15 µM (inactive)
GI50 (OVCAR-3): 0.33 µM (active)
GI50 (LOX IMVI): 0.394 µM (active)
GI50 (SN12C): 3.94 µM (inactive)
GI50 (UO-31): 0.486 µM (active)
GI50 (A498): 7.6 µM (inactive)
GI50 (HCT-15): 0.871 µM
GI50 (A549): 1.44 µM (inactive)
GI50 (ACHN): 0.755 µM (active)
GI50 (U-251): 1.26 µM (inactive)
GI50 (MOLT-4): 0.176 µM (active)
GI50 (NCI-H460): 0.649 µM (active)
GI50 (CCRF-CEM): 0.222 µM (active)
GI50 (NCI-H522): 0.472 µM (active)
GI50 (SF-539): 1.01 µM (active)
GI50 (TK-10): 10.4 µM (inactive)
GI50 (HOP-62): 0.65 µM (active)

COC(=O)NNc1c([N+](=O)[O-])cnn(-c2ccccc2)c1=O
GI50 (K562): 1.04 µM (active)
GI50 (SW-620): 1.07 µM (active)
GI50 (OVCAR-4): 2.07 µM (inactive)
GI50 (COLO 205): 2.11 µM (inactive)
GI50 (OVCAR-3): 1.97 µM (inactive)
GI50 (LOX IMVI): 1.66 µM (inactive)
GI50 (SN12C): 1.99 µM (inactive)
GI50 (UO-31): 8.93 µM (inactive)
GI50 (A498): 27.3 µM (inactive)
GI50 (HCT-15): 2.45 µM
GI50 (A549): 12.4 µM (inactive)
GI50 (ACHN): 4.44 µM (inactive)
GI50 (U-251): 2.62 µM (inactive)
GI50 (MOLT-4): 0.815 µM (active)
GI50 (NCI-H460): 3.96 µM (inactive)
GI50 (CCRF-CEM): 0.302 µM (active)
GI50 (NCI-H522): 0.995 µM (active)
GI50 (SF-539): 3.29 µM (inactive)
GI50 (TK-10): 18.1 µM (inactive)
GI50 (HOP-62): 7.21 µM (inactive)

COc1cc(-c2cc(-c3ccccc3)nc(-c3c(OC)ccc4c(C)cc(=O)oc34)c2)cc(OC)c1OC
GI50 (K562): > 100 µM (inactive)
GI50 (SW-620): > 100 µM (inactive)
GI50 (OVCAR-4): > 100 µM (inactive)
GI50 (COLO 205): > 100 µM (inactive)
GI50 (OVCAR-3): > 100 µM (inactive)
GI50 (LOX IMVI): > 100 µM (inactive)
GI50 (SN12C): > 100 µM (inactive)
GI50 (UO-31): > 100 µM (inactive)
GI50 (A498): > 100 µM (inactive)
GI50 (HCT-15): > 100 µM
GI50 (A549): > 100 µM (inactive)
GI50 (ACHN): > 100 µM (inactive)
GI50 (U-251): > 100 µM (inactive)
GI50 (MOLT-4): > 100 µM (inactive)
GI50 (NCI-H460): > 100 µM (inactive)
GI50 (CCRF-CEM): > 100 µM (inactive)
GI50 (NCI-H522): > 100 µM (inactive)
GI50 (SF-539): > 100 µM (inactive)
GI50 (TK-10): > 100 µM (inactive)
GI50 (HOP-62): > 100 µM (inactive)

Cc1cccc(C)c1NC(=O)CCc1nnc2s/c(=C\c3ccc(N(C)C)cc3)c(=O)n12
GI50 (K562): 53.3 µM (inactive)
GI50 (SW-620): > 100 µM (inactive)
GI50 (OVCAR-4): > 100 µM (inactive)
GI50 (COLO 205): > 100 µM (inactive)
GI50 (OVCAR-3): 56.1 µM (inactive)
GI50 (LOX IMVI): > 100 µM (inactive)
GI50 (SN12C): > 100 µM (inactive)
GI50 (UO-31): > 100 µM (inactive)
GI50 (A498): > 100 µM (inactive)
GI50 (HCT-15): > 100 µM
GI50 (A549): > 100 µM (inactive)
GI50 (ACHN): > 100 µM (inactive)
GI50 (U-251): > 100 µM (inactive)
GI50 (MOLT-4): 53.3 µM (inactive)
GI50 (NCI-H460): > 100 µM (inactive)
GI50 (CCRF-CEM): 38.6 µM (inactive)
GI50 (NCI-H522): > 100 µM (inactive)
GI50 (SF-539): > 100 µM (inactive)
GI50 (TK-10): > 100 µM (inactive)
GI50 (HOP-62): > 100 µM (inactive)

C=C(Br)C(C)(Cl)CCC(Br)C(C)(C)Cl (stereo not given)
GI50 (K562): 46.3 µM (inactive)
GI50 (SW-620): 36.1 µM (inactive)
GI50 (OVCAR-4): 47.8 µM (inactive)
GI50 (COLO 205): 27 µM (inactive)
GI50 (OVCAR-3): 20 µM (inactive)
GI50 (LOX IMVI): 17.6 µM (inactive)
GI50 (SN12C): 40 µM (inactive)
GI50 (UO-31): > 100 µM (inactive)
GI50 (A498): > 100 µM (inactive)
GI50 (HCT-15): 43 µM
GI50 (A549): 36.1 µM (inactive)
GI50 (ACHN): 29.6 µM (inactive)
GI50 (U-251): > 100 µM (inactive)
GI50 (MOLT-4): 32.3 µM (inactive)
GI50 (NCI-H460): > 100 µM (inactive)
GI50 (CCRF-CEM): 20.6 µM (inactive)
GI50 (NCI-H522): 40.5 µM (inactive)
GI50 (SF-539): 74.8 µM (inactive)
GI50 (TK-10): > 100 µM (inactive)
GI50 (HOP-62): 41.2 µM (inactive)

O=c1c2c3c(sc2nc2n1N=C(c1ccc([N+](=O)[O-])cc1)CS2)CCCC3
GI50 (K562): > 100 µM (inactive)
GI50 (SW-620): > 100 µM (inactive)
GI50 (OVCAR-4): > 100 µM (inactive)
GI50 (COLO 205): > 100 µM (inactive)
GI50 (OVCAR-3): > 100 µM (inactive)
GI50 (LOX IMVI): > 100 µM (inactive)
GI50 (SN12C): > 100 µM (inactive)
GI50 (UO-31): > 100 µM (inactive)
GI50 (A498): > 100 µM (inactive)
GI50 (HCT-15): > 100 µM
GI50 (A549): > 100 µM (inactive)
GI50 (ACHN): > 100 µM (inactive)
GI50 (U-251): > 100 µM (inactive)
GI50 (MOLT-4): > 100 µM (inactive)
GI50 (NCI-H460): > 100 µM (inactive)
GI50 (CCRF-CEM): > 100 µM (inactive)
GI50 (NCI-H522): > 100 µM (inactive)
GI50 (SF-539): > 100 µM (inactive)
GI50 (TK-10): 42.2 µM (inactive)
GI50 (HOP-62): > 100 µM (inactive)

— ChEMBL document CHEMBL1201862, “PubChem BioAssay data set” (2004)
